According to patent US10034886B2, “GLP-1 receptor modulators” (Celgene International II SÀRL, priority 2014, dated 2018):

The compounds below were run against T1, GLP-1R (Homo sapiens, UniProt P43220) (assay: EC20 GLP-1(9-36) PAM cAMP assay: dose response of compound in the presence of fixed concentration of GLP-1(9-36)). Conditions: GLP-1R CRE-bla CHO-K1 cells, compound dose response with fixed concentration of GLP-1(9-36), read-out: EC20 GLP-1(9-36) PAM EC50.
T1 construct: host or cells: GLP-1R CRE-bla CHO-K1 cells
T1 sequence (P43220 24-463): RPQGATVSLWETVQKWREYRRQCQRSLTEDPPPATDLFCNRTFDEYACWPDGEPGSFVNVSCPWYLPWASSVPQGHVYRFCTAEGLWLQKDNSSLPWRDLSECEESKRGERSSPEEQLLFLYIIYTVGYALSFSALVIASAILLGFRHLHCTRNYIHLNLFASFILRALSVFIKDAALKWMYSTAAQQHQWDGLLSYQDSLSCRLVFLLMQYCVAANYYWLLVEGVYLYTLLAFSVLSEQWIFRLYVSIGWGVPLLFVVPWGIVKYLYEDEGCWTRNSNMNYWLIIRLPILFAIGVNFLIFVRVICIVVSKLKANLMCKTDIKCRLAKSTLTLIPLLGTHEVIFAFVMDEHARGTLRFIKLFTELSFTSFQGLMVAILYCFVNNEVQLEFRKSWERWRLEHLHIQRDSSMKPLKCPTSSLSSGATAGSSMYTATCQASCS
T1 sequence (P01275 100-127 partner limits assumed): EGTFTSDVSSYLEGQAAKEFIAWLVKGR
Format: cell-based
Procedure, shortened: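 GLP-1R CRE-bla CHO-K1 cells treated 30 min at 37 °C with 12-point compound dose response plus fixed EC20 GLP-1(9-36), with IBMX, in HBSS/HEPES/0.1% BSA pH 7.4. Total cAMP measured by luminescent detection against standard curve; EC50 and Emax from non-linear regression.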

Row | EC50 | SMILES
1 | 5000 to 10000 nM | CC(C)(C)c1ccc(C(=O)N[C@@H](Cc2ccc(-c3ncc(-c4ccc(-c5cccc(C#N)c5)cc4F)cn3)cc2)C(=O)N2CC(C(=O)O)C2)s1 [Compound 1202]
2 | < 800 nM | CC(C)(C)c1ccc(C(=O)N[C@@H](Cc2ccc(-c3ncc(-c4ccc(-c5ccc(OC(F)(F)F)cc5F)cc4F)cn3)cc2)C(=O)N2CC(C(=O)O)C2)s1 [Compound 1203]
3 | < 800 nM | Cc1ccc(-c2ccc(-c3cnc(-c4ccc(C[C@H](NC(=O)c5ccc(C(C)(C)C)s5)C(=O)N5CC(C(=O)O)C5)cc4)nc3)c(F)c2)c(F)c1 [Compound 1204]
4 | < 800 nM | Cc1cccc(C)c1-c1ccc(-c2cnc(-c3ccc(C[C@H](NC(=O)c4ccc(C(C)(C)C)s4)C(=O)N4CC(C(=O)O)C4)cc3)nc2)c(F)c1 [Compound 1205]
5 | 800 to 2500 nM | Cc1cc(F)ccc1-c1ccc(-c2cnc(-c3ccc(C[C@H](NC(=O)c4ccc(C(C)(C)C)s4)C(=O)N4CC(C(=O)O)C4)cc3)nc2)c(F)c1 [Compound 1206]
6 | < 800 nM | Cc1ccc(-c2ccc(-c3cnc(-c4ccc(C[C@H](NC(=O)c5ccc(C(C)(C)C)s5)C(=O)N5CC(C(=O)O)C5)cc4)nc3)c(F)c2)cc1 [Compound 1207]
7 | < 800 nM | CCCc1ccc(-c2ccc(-c3cnc(-c4ccc(C[C@H](NC(=O)c5ccc(C(C)(C)C)s5)C(=O)N5CC(C(=O)O)C5)cc4)nc3)c(F)c2)cc1 [Compound 1208]
8 | < 800 nM | CC(C)(C)c1ccc(C(=O)N[C@@H](Cc2ccc(-c3ncc(-c4ccc(-c5ccc(C6CC6)cc5)cc4F)cn3)cc2)C(=O)N2CC(C(=O)O)C2)s1 [Compound 1209]
9 | < 800 nM | CC(C)(C)c1ccc(C(=O)N[C@@H](Cc2ccc(-c3ncc(-c4ccc(-c5ccc(C6CCC6)cc5)cc4F)cn3)cc2)C(=O)N2CC(C(=O)O)C2)s1 [Compound 1210]
10 | < 800 nM | CC(C)(C)c1ccc(C(=O)N[C@@H](Cc2ccc(-c3ncc(-c4ccc(-c5ccc(C6CCCC6)cc5)cc4F)cn3)cc2)C(=O)N2CC(C(=O)O)C2)s1 [Compound 1211]
11 | < 800 nM | CC(C)(C)c1ccc(C(=O)N[C@@H](Cc2ccc(-c3ncc(-c4ccc(-c5ccc(C6CCCCC6)cc5)cc4F)cn3)cc2)C(=O)N2CC(C(=O)O)C2)s1 [Compound 1212]

Same assay, conditions: dose response of compound in presence of fixed concentration of GLP-1(9-36), GLP-1R CRE-bla CHO-K1 cells, read-out: EC20 GLP-1(9-36) PAM EC50

Row | EC50 | SMILES
12 | < 800 nM | CC[C@H]1CC[C@H](c2ccc(-c3cnc(-c4ccc(C[C@H](NC(=O)c5cnn(C(C)(C)C)c5)C(=O)N5CC(C(=O)O)C5)cc4)nc3)cc2)CC1 [Compound 1165]
13 | < 800 nM | CC[C@H]1CC[C@H](c2ccc(-c3cnc(-c4ccc(C[C@H](NC(=O)c5cc6cc(OC)ccc6[nH]5)C(=O)N5CC(C(=O)O)C5)cc4)nc3)cc2)CC1 [Compound 1166]
14 | < 800 nM | CC[C@H]1CC[C@H](c2ccc(-c3cnc(-c4ccc(C[C@H](NC(=O)c5ccc(C(C)C)s5)C(=O)N5CC(C(=O)O)C5)cc4)nc3)cc2)CC1 [Compound 1167]
15 | < 800 nM | CCc1ccc(C(=O)N[C@@H](Cc2ccc(-c3ncc(-c4ccc([C@H]5CC[C@H](CC)CC5)cc4)cn3)cc2)C(=O)N2CC(C(=O)O)C2)cc1 [Compound 1168]
16 | < 800 nM | CC[C@H]1CC[C@H](c2ccc(-c3cnc(-c4ccc(C[C@H](NC(=O)c5ccc(C(C)C)cc5)C(=O)N5CC(C(=O)O)C5)cc4)nc3)cc2)CC1 [Compound 1169]
17 | < 800 nM | CC[C@H]1CC[C@H](c2ccc(-c3cnc(-c4ccc(C[C@H](NC(=O)c5ccc(C(C)(C)C)cc5)C(=O)N5CC(C(=O)O)C5)cc4)nc3)cc2)CC1 [Compound 1170]
18 | < 800 nM | C[C@@H](NC(=O)[C@H](Cc1ccc(-c2ncc(-c3ccc(-c4ccc(OC(F)(F)F)cc4)cc3F)cn2)cc1)NC(=O)c1ccc(C(C)(C)C)s1)C(=O)O [Compound 1171]
19 | 800 to 2500 nM | Cc1ccc(-c2ccc(-c3cnc(-c4ccc(C[C@H](NC(=O)c5ccc(C(C)(C)C)s5)C(=O)N[C@H](C)C(=O)O)cc4)nc3)c(F)c2)cc1 [Compound 1172]
20 | < 800 nM | CCc1ccc(-c2ccc(-c3cnc(-c4ccc(C[C@H](NC(=O)c5ccc(C(C)(C)C)s5)C(=O)N[C@H](C)C(=O)O)cc4)nc3)c(F)c2)cc1 [Compound 1173]
21 | < 800 nM | C[C@@H](NC(=O)[C@H](Cc1ccc(-c2ncc(-c3ccc(-c4ccc(C(F)(F)F)cc4)cc3F)cn2)cc1)NC(=O)c1ccc(C(C)(C)C)s1)C(=O)O [Compound 1174]
22 | < 800 nM | Cc1cc(-c2ccc(-c3cnc(-c4ccc(C[C@H](NC(=O)c5ccc(C(C)(C)C)s5)C(=O)N[C@H](C)C(=O)O)cc4)nc3)c(F)c2)ccc1OC(F)(F)F [Compound 1175]
23 | < 800 nM | CC(C)(C)c1ccc(C(=O)N[C@@H](Cc2ccc(-c3ncc(-c4ccc([C@H]5CC[C@H](C)CC5)cc4)cn3)cc2)C(=O)N2CC(C(=O)O)C2)s1 [Compound 1176]
24 | < 800 nM | CC(C)(C)c1ccc(C(=O)N[C@@H](Cc2ccc(-c3ncc(-c4ccc([C@H]5CC[C@@H](C)CC5)cc4)cn3)cc2)C(=O)N2CC(C(=O)O)C2)s1 [Compound 1177]
25 | < 800 nM | CC(C)[C@H]1CC[C@H](c2ccc(-c3cnc(-c4ccc(C[C@H](NC(=O)c5ccc(C(C)(C)C)s5)C(=O)N5CC(C(=O)O)C5)cc4)nc3)cc2)CC1 [Compound 1178]
26 | < 800 nM | CC(C)[C@H]1CC[C@@H](c2ccc(-c3cnc(-c4ccc(C[C@H](NC(=O)c5ccc(C(C)(C)C)s5)C(=O)N5CC(C(=O)O)C5)cc4)nc3)cc2)CC1 [Compound 1179]
27 | 2500 to 5000 nM | CC(C)(C)c1ccc(C(=O)N[C@@H](Cc2ccc(-c3ncc(-c4ccc(C5CCOCC5)cc4)cn3)cc2)C(=O)N2CC(C(=O)O)C2)s1 [Compound 1180]
28 | 800 to 2500 nM | CC(C)(C)c1ccc(C(=O)N[C@@H](Cc2ccc(-c3ncc(-c4ccc([C@H]5CC[C@H](C(C)(C)C)CC5)cc4)cn3)cc2)C(=O)N2CC(C(=O)O)C2)s1 [Compound 1181]
29 | < 800 nM | CC(C)(C)c1ccc(C(=O)N[C@@H](Cc2ccc(-c3ncc(-c4ccc([C@H]5CC[C@@H](C(C)(C)C)CC5)cc4)cn3)cc2)C(=O)N2CC(C(=O)O)C2)s1 [Compound 1182]
30 | < 800 nM | CC(C)(C)c1ccc(C(=O)N[C@@H](Cc2ccc(-c3ncc(-c4ccc(C5CCC(F)(F)CC5)cc4)cn3)cc2)C(=O)N2CC(C(=O)O)C2)s1 [Compound 1183]

Row | EC50 | SMILES
31 | < 800 nM | CC(C)(C)c1ccc(C(=O)N[C@@H](Cc2ccc(-c3ncc(-c4ccc([C@H]5CC[C@H](C(F)(F)F)CC5)cc4)cn3)cc2)C(=O)N2CC(C(=O)O)C2)s1 [Compound 1184]
32 | < 800 nM | CC(C)(C)c1ccc(C(=O)N[C@@H](Cc2ccc(-c3ncc(-c4ccc([C@H]5CC[C@@H](C(F)(F)F)CC5)cc4)cn3)cc2)C(=O)N2CC(C(=O)O)C2)s1 [Compound 1185]
33 | < 800 nM | CC(C)(C)c1ccc(C(=O)N[C@@H](Cc2ccc(-c3ncc(-c4ccc(C5CCC6(CC5)OCCO6)cc4)cn3)cc2)C(=O)N2CC(C(=O)O)C2)s1 [Compound 1186]
34 | < 800 nM | CC1CCC(c2ccc(-c3cnc(-c4ccc(C[C@H](NC(=O)c5ccc(C(C)(C)C)s5)C(=O)N5CC(C(=O)O)C5)cc4)nc3)cc2)CC1 (stereo partly drawn) [Compound 1187]
35 | < 800 nM | CC(C)(C)c1ccc(C(=O)N[C@@H](Cc2ccc(-c3ncc(-c4ccc(-c5ccc(OC(F)(F)F)cc5)cc4F)cn3)cc2)C(=O)N2CC(C(=O)O)C2)s1 [Compound 1188]
36 | < 800 nM | CCc1ccc(-c2ccc(-c3cnc(-c4ccc(C[C@H](NC(=O)c5ccc(C(C)(C)C)s5)C(=O)N5CC(C(=O)O)C5)cc4)nc3)c(F)c2)cc1 [Compound 1189]
37 | < 800 nM | CC(C)(C)c1ccc(C(=O)N[C@@H](Cc2ccc(-c3ncc(-c4ccc(-c5ccc(Cl)cc5)cc4F)cn3)cc2)C(=O)N2CC(C(=O)O)C2)s1 [Compound 1190]
38 | < 800 nM | Cc1cc(C)cc(-c2ccc(-c3cnc(-c4ccc(C[C@H](NC(=O)c5ccc(C(C)(C)C)s5)C(=O)N5CC(C(=O)O)C5)cc4)nc3)c(F)c2)c1 [Compound 1191]
39 | < 800 nM | CC(C)(C)c1ccc(C(=O)N[C@@H](Cc2ccc(-c3ncc(-c4ccc(-c5cccc(Cl)c5)cc4F)cn3)cc2)C(=O)N2CC(C(=O)O)C2)s1 [Compound 1192]
40 | < 800 nM | CC(=O)c1cccc(-c2ccc(-c3cnc(-c4ccc(C[C@H](NC(=O)c5ccc(C(C)(C)C)s5)C(=O)N5CC(C(=O)O)C5)cc4)nc3)c(F)c2)c1 [Compound 1193]
41 | < 800 nM | CC(C)(C)c1ccc(C(=O)N[C@@H](Cc2ccc(-c3ncc(-c4ccc(-c5ccccc5F)cc4F)cn3)cc2)C(=O)N2CC(C(=O)O)C2)s1 [Compound 1194]
42 | < 800 nM | CC(C)(C)c1ccc(C(=O)N[C@@H](Cc2ccc(-c3ncc(-c4ccc(-c5ccccc5Cl)cc4F)cn3)cc2)C(=O)N2CC(C(=O)O)C2)s1 [Compound 1195]
43 | < 800 nM | Cc1ccc(-c2ccc(-c3cnc(-c4ccc(C[C@H](NC(=O)c5ccc(C(C)(C)C)s5)C(=O)N5CC(C(=O)O)C5)cc4)nc3)c(F)c2)cc1Cl [Compound 1196]
44 | 800 to 2500 nM | CC(=O)c1ccccc1-c1ccc(-c2cnc(-c3ccc(C[C@H](NC(=O)c4ccc(C(C)(C)C)s4)C(=O)N4CC(C(=O)O)C4)cc3)nc2)c(F)c1 [Compound 1197]
45 | < 800 nM | CC(C)(C)c1ccc(C(=O)N[C@@H](Cc2ccc(-c3ncc(-c4ccc(-c5cc(Cl)cc(Cl)c5)cc4F)cn3)cc2)C(=O)N2CC(C(=O)O)C2)s1 [Compound 1198]
46 | < 800 nM | Cc1cc(-c2ccc(-c3cnc(-c4ccc(C[C@H](NC(=O)c5ccc(C(C)(C)C)s5)C(=O)N5CC(C(=O)O)C5)cc4)nc3)c(F)c2)ccc1Cl [Compound 1199]
47 | < 800 nM | CC(C)(C)c1ccc(C(=O)N[C@@H](Cc2ccc(-c3ncc(-c4ccc(-c5ccc(Cl)c(Cl)c5)cc4F)cn3)cc2)C(=O)N2CC(C(=O)O)C2)s1 [Compound 1200]
48 | < 800 nM | CC(C)(C)c1ccc(C(=O)N[C@@H](Cc2ccc(-c3ncc(-c4ccc(-c5ccc(C#N)cc5)cc4F)cn3)cc2)C(=O)N2CC(C(=O)O)C2)s1 [Compound 1201]
